Source: publication PMC9583322, “Vicinal Diaryl-Substituted Isoxazole and Pyrazole Derivatives with In Vitro Growth Inhibitory and In Vivo Antitumor Activity” (ACS Omega, 2022)

Tests used:
Mouse PK, IV and PO = assay type: in vivo
Method: 1000 Mean Mice PK plasma concentrations after
Figure S2. Plasma concentrations vs. time profile of 85 after single dose IV (1 mg/kg) and PO
(10 mg/kg) administrations in male CD-1 mice. The PK study was done at Syngene
International, Ltd., India. […]

CYP2C9 = CYP2C9 (Homo sapiens, UniProt P11712); assay: CYP inhibition; assay type: in vitro ADME; details: read-out: Inhibition of human CYP 2C9
Chain of CYP2C9 (P11712 whole entry): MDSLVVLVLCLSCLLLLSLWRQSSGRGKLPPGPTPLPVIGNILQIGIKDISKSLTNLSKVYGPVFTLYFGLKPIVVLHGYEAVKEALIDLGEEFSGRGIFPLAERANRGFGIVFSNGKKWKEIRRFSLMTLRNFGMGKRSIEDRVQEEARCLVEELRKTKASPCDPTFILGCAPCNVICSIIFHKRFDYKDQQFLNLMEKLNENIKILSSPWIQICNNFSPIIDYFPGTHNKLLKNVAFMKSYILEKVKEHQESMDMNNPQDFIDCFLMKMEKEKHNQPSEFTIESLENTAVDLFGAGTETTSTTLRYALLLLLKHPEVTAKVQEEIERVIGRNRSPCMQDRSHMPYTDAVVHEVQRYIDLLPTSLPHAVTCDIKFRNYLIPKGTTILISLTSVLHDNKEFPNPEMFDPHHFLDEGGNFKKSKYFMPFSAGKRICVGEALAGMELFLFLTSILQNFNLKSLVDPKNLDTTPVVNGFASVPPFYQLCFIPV
Method: (§1) All chemicals were purchased from different suppliers such as Sigma-Aldrich Chemicals (Sigma-Aldrich Corp., St. Louis, MO), Merck Chemicals (Merck KGaA, Darmstadt, Germany), and ABCR (abcr GmbH, Karlsruhe, Germany). THF was dried from benzophenone-sodium. ^1H and ^13C NMR spectra were recorded in CDCl3 or DMSO-d6 on a Varian Mercury 400 MHz spectrometer using tetramethylsilane as the internal standard. Coupling constants were reported as Hertz and all chemical shifts were recorded as δ (ppm). High-resolution mass spectra data (HRMS) were collected using Waters LCT Premier XE Mass Spectrometer operating in ESI(+) or ESI(−) method, also coupled to an AQUITY Ultra Performance Liquid Chromatography system (Waters Corporation) using a UV detector monitoring at 254 nm. Purity for all final compounds was >95%, according to the UPLC-MS method using a water/MeCN solvent gradient containing 0.1% formic acid (1%/90%); flow rate: 0.3 mL/min, column: Aquity BEH C18 column (2.1 × 100 mm^2, 1.7 mm). All microwave irradiation reactions were carried out in a Biotage Initiator + microwave apparatus with Biotage sealed microwave vials. Flash chromatography was performed on a Combiflash Rf Automatic Flash Chromatography System with RediSep silica gel columns (12, 24, and 40 g) (Teledyne-Isco, Lincoln, NE) or Reveleris PREP Purification System (Buchi, New Castle, DE). Preparative chromatography was performed on Buchi US15C18HQ-250/212-C18 silica gel columns with the following devices; Reveleris PREP Purification System or PuriFlash 4250 System (Interchim, Montluçon, France). Melting points of the compounds were determined using the SMP50 automated melting point apparatus (Stuart, Staffordshire, ST15 OSA, U.K.). The in vitro ADME and in vivo mouse PK studies were conducted at Syngene International Ltd., Bangalore, India. General synthetic procedures (Methods 1–9) and experimental data for all intermediate compounds can be found in the Supporting Information.

CYP3A4 = CYP3A4 (Homo sapiens, UniProt P08684); assay: CYP inhibition; assay type: in vitro ADME; details: read-out: Inhibition of human CYP 3A4
Chain of CYP3A4 (P08684 whole entry): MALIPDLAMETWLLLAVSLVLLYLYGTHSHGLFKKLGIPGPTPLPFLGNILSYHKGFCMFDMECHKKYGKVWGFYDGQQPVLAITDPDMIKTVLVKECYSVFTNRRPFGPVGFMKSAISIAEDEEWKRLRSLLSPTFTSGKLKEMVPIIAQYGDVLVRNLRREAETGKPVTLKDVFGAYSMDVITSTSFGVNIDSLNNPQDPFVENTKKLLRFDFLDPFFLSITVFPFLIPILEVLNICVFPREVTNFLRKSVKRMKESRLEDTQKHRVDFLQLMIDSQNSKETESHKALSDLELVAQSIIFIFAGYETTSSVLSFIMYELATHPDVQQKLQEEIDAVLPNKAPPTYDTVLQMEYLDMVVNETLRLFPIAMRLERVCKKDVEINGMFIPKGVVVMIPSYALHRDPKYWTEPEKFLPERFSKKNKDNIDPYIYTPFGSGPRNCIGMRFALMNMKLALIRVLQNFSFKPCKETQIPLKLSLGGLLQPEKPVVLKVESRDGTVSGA
Method: as §1

CYP2D6 = CYP2D6 (Homo sapiens, UniProt P10635); assay: CYP inhibition; assay type: in vitro ADME; details: read-out: Inhibition of human CYP 2D6
Chain of CYP2D6 (P10635 whole entry): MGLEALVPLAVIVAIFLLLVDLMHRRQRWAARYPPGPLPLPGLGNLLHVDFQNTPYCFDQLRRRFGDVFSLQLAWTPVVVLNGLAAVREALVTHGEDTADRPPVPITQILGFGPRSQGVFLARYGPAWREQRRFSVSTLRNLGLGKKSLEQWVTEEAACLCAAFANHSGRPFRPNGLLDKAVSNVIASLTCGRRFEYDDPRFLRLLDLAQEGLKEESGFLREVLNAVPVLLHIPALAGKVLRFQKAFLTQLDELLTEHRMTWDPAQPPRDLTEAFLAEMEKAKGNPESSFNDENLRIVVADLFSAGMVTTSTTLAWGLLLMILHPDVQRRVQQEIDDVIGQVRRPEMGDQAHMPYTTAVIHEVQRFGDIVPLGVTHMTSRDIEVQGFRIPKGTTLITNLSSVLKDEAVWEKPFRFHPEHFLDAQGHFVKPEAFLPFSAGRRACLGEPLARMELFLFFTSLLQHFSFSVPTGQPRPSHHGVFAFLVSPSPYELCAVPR
Method: as §1

Huh7, Mahlavu and MCF7 = assay: SRB cytotoxicity, summary for all three cell lines; assay type: cell-based; details: Homo sapiens; one value or range for Huh7, Mahlavu and MCF7 together; read-out: IC50 against all three cell lines
Method: Mahlavu, FOCUS, SNU475 (1000 cell/well in 150 μL/well); Huh7, MCF7 (2500 cell/well in 150 μL/well); HepG2, Hep3B, SKBR3 (3000 cell/well in 150 μL/well); PLC-PRF-5, Hep40 (5000 cell/well in 150 μL/well); MDA-MB-231, MDA-MB-468, MCF10A (6000 cell/well in 150 μL/well); and ZR-75 (7500 cell/well in 150 μL/well) were cultured in 96-well plates and were inoculated in an incubator for 24 hours. The compounds were dissolved in dimethyl sulfoxide (DMSO) (Sigma, St Louis, MO) as a 20 mM stock solution. The treatment of cells with the compounds was done in a concentration range starting from 40 to 2.5 μM. The compounds which were below 2.5 μM were tested in a concentration range from 2.5 to 0.15 μM. End of the 72h compound treatment, the cells were fixed using 10% (v/v) trichloroacetic acid (MERCK) for an hour and washed with ddH2O, and left for air-drying. The fixed plates were stained with 50 μL of sulforhodamine B (SRB) solution (Sigma) at RT for 10 min. To remove unbound SRB dye, acetic acid was used to wash cells three times and left for drying. The protein-bound SRB was solubilized with 10 mM Tris-base (Sigma) and their absorbance was measured with a 96-well plate reader at 515 nm wavelength (ELx800, Biotek). The IC50 values of compounds were calculated in comparison with control group DMSO. Data with R^2 values larger than 0.9 are considered significant.

logD7.4 = assay type: physicochemical; details: pH 7.4
Method: as §1, with “Flash chromatography was performed on a Combiflash Rf Automatic Flash Chromatography System with RediSep silica gel columns (12, 24, and 40 g) (Teledyne-Isco, Lincoln, NE) or Reveleris PREP Purification System (Buchi, New Castle, DE). Preparative chromatography was performed on Buchi US15C18HQ-250/212-C18 silica gel columns with the following devices; Reveleris PREP Purification System or PuriFlash 4250 System (Interchim, Montluçon, France).” left out, “The in vitro ADME and in vivo mouse PK studies were conducted at Syngene International Ltd., Bangalore, India. General synthetic procedures (Methods 1–9) and experimental data for all intermediate compounds can be found in the Supporting Information.” left out

plasma protein = assay: Plasma protein binding; assay type: in vitro ADME
Method: as §1, with “Flash chromatography was performed on a Combiflash Rf Automatic Flash Chromatography System with RediSep silica gel columns (12, 24, and 40 g) (Teledyne-Isco, Lincoln, NE) or Reveleris PREP Purification System (Buchi, New Castle, DE). Preparative chromatography was performed on Buchi US15C18HQ-250/212-C18 silica gel columns with the following devices; Reveleris PREP Purification System or PuriFlash 4250 System (Interchim, Montluçon, France).” left out, “The in vitro ADME and in vivo mouse PK studies were conducted at Syngene International Ltd., Bangalore, India. General synthetic procedures (Methods 1–9) and experimental data for all intermediate compounds can be found in the Supporting Information.” left out

[1] = Solubility at the physiological pH; assay type: physicochemical
Method: as §1, with “Flash chromatography was performed on a Combiflash Rf Automatic Flash Chromatography System with RediSep silica gel columns (12, 24, and 40 g) (Teledyne-Isco, Lincoln, NE) or Reveleris PREP Purification System (Buchi, New Castle, DE). Preparative chromatography was performed on Buchi US15C18HQ-250/212-C18 silica gel columns with the following devices; Reveleris PREP Purification System or PuriFlash 4250 System (Interchim, Montluçon, France).” left out, “The in vitro ADME and in vivo mouse PK studies were conducted at Syngene International Ltd., Bangalore, India. General synthetic procedures (Methods 1–9) and experimental data for all intermediate compounds can be found in the Supporting Information.” left out

[2] = Metabolic stability in human microsomes; assay type: in vitro ADME; details: after 45 min incubation
Method: as §1, with “Flash chromatography was performed on a Combiflash Rf Automatic Flash Chromatography System with RediSep silica gel columns (12, 24, and 40 g) (Teledyne-Isco, Lincoln, NE) or Reveleris PREP Purification System (Buchi, New Castle, DE). Preparative chromatography was performed on Buchi US15C18HQ-250/212-C18 silica gel columns with the following devices; Reveleris PREP Purification System or PuriFlash 4250 System (Interchim, Montluçon, France).” left out, “The in vitro ADME and in vivo mouse PK studies were conducted at Syngene International Ltd., Bangalore, India. General synthetic procedures (Methods 1–9) and experimental data for all intermediate compounds can be found in the Supporting Information.” left out

[3] = male, CD-1, plasma, 1 mg/kg, Mouse IV PK, 1 mpk
[4] = male, CD-1, plasma, 10 mg/kg, Mouse PO PK, 10 mpk

Question: Which Co (Mouse PK, IV and PO; Mouse IV PK, 1 mpk) does the source give for `Cc1ccccc1COc1ccc(-c2ccnn2-c2ccc(Cl)cc2)cc1` [compound 85, 1-(4-Chlorophenyl)-5-(4-((2-methylbenzyl)oxy)phenyl)-1H-pyrazole] here?
Answer: 393 ng/mL

Question: And the AUC (Mouse PK, IV and PO; [3])?
Answer: 436 ng·h/mL

Question: What about the Vd (Mouse PK, IV and PO; [3]) of the same molecule?
Answer: 13.2 L/kg

Question: What about the half-life (Mouse PK, IV and PO; [3]) of the same molecule?
Answer: 3.85 h

Question: What about the clearance (Mouse PK, IV and PO; male, CD-1, plasma, 1 mg/kg, Mouse IV PK, 1 mpk, read-out: Clp (converted)) of the same molecule?
Answer: 38.8 mL/min/kg

Question: And the AUC (Mouse PK, IV and PO; [4])?
Answer: 192 ng·h/mL

Question: And the Cmax (Mouse PK, IV and PO; [4])?
Answer: 19.3 ng/mL

Question: And the bioavailability (Mouse PK, IV and PO; [4])?
Answer: 5%

Question: And the half-life (Mouse PK, IV and PO; [4])?
Answer: 6.64 h

Question: And the inhibition at 10 µM (CYP2C9)?
Answer: 7.3%

Question: And the inhibition at 10 µM (CYP3A4)?
Answer: 0%

Question: And the inhibition at 10 µM (CYP2D6)?
Answer: 22.2%

Question: What about the IC50 (Huh7, Mahlavu and MCF7) of the same molecule?
Answer: 0.7 to 14.4 µM

Question: And the logD (logD7.4)?
Answer: 6.64

Question: What about the plasma protein-bound (plasma protein) of the same molecule?
Answer: 99.9%

Question: What about the Solubility [1] of the same molecule?
Answer: sparingly soluble

Question: What about the “Metabolic stability, remaining” value [2] of the same molecule?
Answer: 55%
